# Test results from patent publication US12590118B2, “Salt and crystal form of steroid derivative regulator” (Shanghai Hansoh Biomedical Co., Ltd., priority 2019, dated 2026).
# Test: Crystal form stability experiment (XRPD)
# Assay type: physicochemical
# Description: X-ray powder diffraction assay was carried out, and the obtained data was compared with the initial data.
smiles,measurement,setting,value
"C[C@@H]1C[C@H](C(=O)Cn2ccc(C#N)n2)[C@@]2(C)CC[C@H]3[C@@H](CC[C@@H]4C[C@](C)(O)CC[C@@H]43)[C@H]12 [Crystal form I, 1-(2-((3R,5R,8R,9R,10S,13S,14S,15R,17S)-3-Hydroxy-3,13,15-trimethylhexadecahydro-1H-cyclopenta[a]phenanthren-17-yl)-2-oxoethyl)-1H-pyrazole-3-carbonitrile]",X-ray powder diffraction peak No. 1,0 day (initial),7.3
same,X-ray powder diffraction peak No. 2,0 day (initial),11.1
same,X-ray powder diffraction peak No. 3,0 day (initial),11.9
same,X-ray powder diffraction peak No. 4,0 day (initial),12.6
same,X-ray powder diffraction peak No. 5,0 day (initial),16.7
same,X-ray powder diffraction peak No. 6,0 day (initial),17.4
same,X-ray powder diffraction peak No. 7,0 day (initial),20.2
same,X-ray powder diffraction peak No. 8,0 day (initial),20.6
same,X-ray powder diffraction peak No. 9,0 day (initial),21.9
same,X-ray powder diffraction peak No. 10,0 day (initial),23.9
same,X-ray powder diffraction peak No. 11,0 day (initial),38.4
same,X-ray powder diffraction peak No. 1,"25° C. RH75%, 5 days",7.3
same,X-ray powder diffraction peak No. 2,"25° C. RH75%, 5 days",11.0
same,X-ray powder diffraction peak No. 3,"25° C. RH75%, 5 days",11.8
same,X-ray powder diffraction peak No. 4,"25° C. RH75%, 5 days",12.5
same,X-ray powder diffraction peak No. 5,"25° C. RH75%, 5 days",16.6
same,X-ray powder diffraction peak No. 6,"25° C. RH75%, 5 days",17.3
same,X-ray powder diffraction peak No. 7,"25° C. RH75%, 5 days",20.1
same,X-ray powder diffraction peak No. 8,"25° C. RH75%, 5 days",20.5
same,X-ray powder diffraction peak No. 9,"25° C. RH75%, 5 days",21.7
same,X-ray powder diffraction peak No. 10,"25° C. RH75%, 5 days",24.1
same,X-ray powder diffraction peak No. 11,"25° C. RH75%, 5 days",38.2
same,X-ray powder diffraction peak No. 1,"25° C. RH75%, 10 days",7.3
same,X-ray powder diffraction peak No. 2,"25° C. RH75%, 10 days",11.0
same,X-ray powder diffraction peak No. 3,"25° C. RH75%, 10 days",11.8
same,X-ray powder diffraction peak No. 4,"25° C. RH75%, 10 days",12.5
same,X-ray powder diffraction peak No. 5,"25° C. RH75%, 10 days",16.6
same,X-ray powder diffraction peak No. 6,"25° C. RH75%, 10 days",17.3
same,X-ray powder diffraction peak No. 7,"25° C. RH75%, 10 days",20.1
same,X-ray powder diffraction peak No. 8,"25° C. RH75%, 10 days",20.5
same,X-ray powder diffraction peak No. 9,"25° C. RH75%, 10 days",21.8
same,X-ray powder diffraction peak No. 10,"25° C. RH75%, 10 days",24.1
same,X-ray powder diffraction peak No. 11,"25° C. RH75%, 10 days",38.2
same,X-ray powder diffraction peak No. 1,"25° C. RH75%, 30 days",7.1
same,X-ray powder diffraction peak No. 2,"25° C. RH75%, 30 days",11.2
same,X-ray powder diffraction peak No. 3,"25° C. RH75%, 30 days",11.7
same,X-ray powder diffraction peak No. 4,"25° C. RH75%, 30 days",12.4
same,X-ray powder diffraction peak No. 5,"25° C. RH75%, 30 days",16.5
same,X-ray powder diffraction peak No. 6,"25° C. RH75%, 30 days",17.2
same,X-ray powder diffraction peak No. 7,"25° C. RH75%, 30 days",20.0
same,X-ray powder diffraction peak No. 8,"25° C. RH75%, 30 days",20.7
same,X-ray powder diffraction peak No. 9,"25° C. RH75%, 30 days",22.0
same,X-ray powder diffraction peak No. 10,"25° C. RH75%, 30 days",24.0
same,X-ray powder diffraction peak No. 11,"25° C. RH75%, 30 days",38.2
same,X-ray powder diffraction peak No. 1,"25° C. RH90%, 5 days",7.2
same,X-ray powder diffraction peak No. 2,"25° C. RH90%, 5 days",11.0
same,X-ray powder diffraction peak No. 3,"25° C. RH90%, 5 days",11.8
same,X-ray powder diffraction peak No. 4,"25° C. RH90%, 5 days",12.5
same,X-ray powder diffraction peak No. 5,"25° C. RH90%, 5 days",16.5
same,X-ray powder diffraction peak No. 6,"25° C. RH90%, 5 days",17.3
same,X-ray powder diffraction peak No. 7,"25° C. RH90%, 5 days",20.1
same,X-ray powder diffraction peak No. 8,"25° C. RH90%, 5 days",20.5
same,X-ray powder diffraction peak No. 9,"25° C. RH90%, 5 days",21.7
same,X-ray powder diffraction peak No. 10,"25° C. RH90%, 5 days",24.1
same,X-ray powder diffraction peak No. 11,"25° C. RH90%, 5 days",38.3
same,X-ray powder diffraction peak No. 1,"25° C. RH90%, 10 days",7.2
same,X-ray powder diffraction peak No. 2,"25° C. RH90%, 10 days",11.0
same,X-ray powder diffraction peak No. 3,"25° C. RH90%, 10 days",11.8
same,X-ray powder diffraction peak No. 4,"25° C. RH90%, 10 days",12.5
same,X-ray powder diffraction peak No. 5,"25° C. RH90%, 10 days",16.6
same,X-ray powder diffraction peak No. 6,"25° C. RH90%, 10 days",17.3
same,X-ray powder diffraction peak No. 7,"25° C. RH90%, 10 days",20.2
same,X-ray powder diffraction peak No. 8,"25° C. RH90%, 10 days",20.5
same,X-ray powder diffraction peak No. 9,"25° C. RH90%, 10 days",21.8
same,X-ray powder diffraction peak No. 10,"25° C. RH90%, 10 days",23.8
same,X-ray powder diffraction peak No. 11,"25° C. RH90%, 10 days",38.3
same,X-ray powder diffraction peak No. 1,"25° C. RH90%, 30 days",7.2
same,X-ray powder diffraction peak No. 2,"25° C. RH90%, 30 days",11.0
same,X-ray powder diffraction peak No. 3,"25° C. RH90%, 30 days",11.8
same,X-ray powder diffraction peak No. 4,"25° C. RH90%, 30 days",12.5
same,X-ray powder diffraction peak No. 5,"25° C. RH90%, 30 days",16.6
same,X-ray powder diffraction peak No. 6,"25° C. RH90%, 30 days",17.3
same,X-ray powder diffraction peak No. 7,"25° C. RH90%, 30 days",20.1
same,X-ray powder diffraction peak No. 8,"25° C. RH90%, 30 days",20.5
same,X-ray powder diffraction peak No. 9,"25° C. RH90%, 30 days",21.8
same,X-ray powder diffraction peak No. 10,"25° C. RH90%, 30 days",24.0
same,X-ray powder diffraction peak No. 11,"25° C. RH90%, 30 days",38.2
same,X-ray powder diffraction peak No. 1,"40° C., 5 days",7.2
same,X-ray powder diffraction peak No. 2,"40° C., 5 days",11.0
same,X-ray powder diffraction peak No. 3,"40° C., 5 days",11.8
same,X-ray powder diffraction peak No. 4,"40° C., 5 days",12.5
same,X-ray powder diffraction peak No. 5,"40° C., 5 days",16.6
same,X-ray powder diffraction peak No. 6,"40° C., 5 days",17.3
same,X-ray powder diffraction peak No. 7,"40° C., 5 days",20.1
same,X-ray powder diffraction peak No. 8,"40° C., 5 days",20.5
same,X-ray powder diffraction peak No. 9,"40° C., 5 days",22.1
same,X-ray powder diffraction peak No. 10,"40° C., 5 days",23.8
same,X-ray powder diffraction peak No. 11,"40° C., 5 days",38.3
same,X-ray powder diffraction peak No. 1,"40° C., 10 days",7.3
same,X-ray powder diffraction peak No. 2,"40° C., 10 days",11.0
same,X-ray powder diffraction peak No. 3,"40° C., 10 days",11.8
same,X-ray powder diffraction peak No. 4,"40° C., 10 days",12.5
same,X-ray powder diffraction peak No. 5,"40° C., 10 days",16.6
same,X-ray powder diffraction peak No. 6,"40° C., 10 days",17.3
same,X-ray powder diffraction peak No. 7,"40° C., 10 days",20.2
same,X-ray powder diffraction peak No. 8,"40° C., 10 days",20.5
same,X-ray powder diffraction peak No. 9,"40° C., 10 days",21.9
same,X-ray powder diffraction peak No. 10,"40° C., 10 days",23.8
same,X-ray powder diffraction peak No. 11,"40° C., 10 days",38.2
same,X-ray powder diffraction peak No. 1,"40° C., 30 days",7.2
same,X-ray powder diffraction peak No. 2,"40° C., 30 days",11.0
same,X-ray powder diffraction peak No. 3,"40° C., 30 days",11.8
same,X-ray powder diffraction peak No. 4,"40° C., 30 days",12.5
same,X-ray powder diffraction peak No. 5,"40° C., 30 days",16.6
same,X-ray powder diffraction peak No. 6,"40° C., 30 days",17.3
same,X-ray powder diffraction peak No. 7,"40° C., 30 days",20.1
same,X-ray powder diffraction peak No. 8,"40° C., 30 days",20.5
same,X-ray powder diffraction peak No. 9,"40° C., 30 days",22.0
same,X-ray powder diffraction peak No. 10,"40° C., 30 days",23.7
same,X-ray powder diffraction peak No. 11,"40° C., 30 days",38.2
same,X-ray powder diffraction peak No. 1,"60° C., 5 days",7.1
same,X-ray powder diffraction peak No. 2,"60° C., 5 days",10.9
same,X-ray powder diffraction peak No. 3,"60° C., 5 days",11.7
same,X-ray powder diffraction peak No. 4,"60° C., 5 days",12.4
same,X-ray powder diffraction peak No. 5,"60° C., 5 days",16.5
same,X-ray powder diffraction peak No. 6,"60° C., 5 days",17.2
same,X-ray powder diffraction peak No. 7,"60° C., 5 days",20.0
same,X-ray powder diffraction peak No. 8,"60° C., 5 days",20.7
same,X-ray powder diffraction peak No. 9,"60° C., 5 days",22.0
same,X-ray powder diffraction peak No. 10,"60° C., 5 days",24.0
same,X-ray powder diffraction peak No. 11,"60° C., 5 days",38.2
same,X-ray powder diffraction peak No. 1,"60° C., 10 days",7.2
same,X-ray powder diffraction peak No. 2,"60° C., 10 days",10.9
same,X-ray powder diffraction peak No. 3,"60° C., 10 days",11.7
same,X-ray powder diffraction peak No. 4,"60° C., 10 days",12.4
same,X-ray powder diffraction peak No. 5,"60° C., 10 days",16.5
same,X-ray powder diffraction peak No. 6,"60° C., 10 days",17.2
same,X-ray powder diffraction peak No. 7,"60° C., 10 days",20.1
same,X-ray powder diffraction peak No. 8,"60° C., 10 days",20.7
same,X-ray powder diffraction peak No. 9,"60° C., 10 days",22.0
same,X-ray powder diffraction peak No. 10,"60° C., 10 days",24.0
same,X-ray powder diffraction peak No. 11,"60° C., 10 days",38.2
same,X-ray powder diffraction peak No. 1,"60° C., 30 days",7.2
same,X-ray powder diffraction peak No. 2,"60° C., 30 days",11.0
same,X-ray powder diffraction peak No. 3,"60° C., 30 days",11.8
same,X-ray powder diffraction peak No. 4,"60° C., 30 days",12.5
same,X-ray powder diffraction peak No. 5,"60° C., 30 days",16.6
same,X-ray powder diffraction peak No. 6,"60° C., 30 days",17.3
same,X-ray powder diffraction peak No. 7,"60° C., 30 days",20.1
same,X-ray powder diffraction peak No. 8,"60° C., 30 days",20.4
same,X-ray powder diffraction peak No. 9,"60° C., 30 days",21.8
same,X-ray powder diffraction peak No. 10,"60° C., 30 days",23.8
same,X-ray powder diffraction peak No. 11,"60° C., 30 days",38.2
same,X-ray powder diffraction peak No. 1,"Light, 5 days",7.3
same,X-ray powder diffraction peak No. 2,"Light, 5 days",11.0
same,X-ray powder diffraction peak No. 3,"Light, 5 days",11.9
same,X-ray powder diffraction peak No. 4,"Light, 5 days",12.5
same,X-ray powder diffraction peak No. 5,"Light, 5 days",16.6
same,X-ray powder diffraction peak No. 6,"Light, 5 days",17.3
same,X-ray powder diffraction peak No. 7,"Light, 5 days",20.1
same,X-ray powder diffraction peak No. 8,"Light, 5 days",20.6
same,X-ray powder diffraction peak No. 9,"Light, 5 days",22.1
same,X-ray powder diffraction peak No. 10,"Light, 5 days",23.9
same,X-ray powder diffraction peak No. 11,"Light, 5 days",38.3
same,X-ray powder diffraction peak No. 1,"Light, 10 days",7.3
same,X-ray powder diffraction peak No. 2,"Light, 10 days",11.1
same,X-ray powder diffraction peak No. 3,"Light, 10 days",11.9
same,X-ray powder diffraction peak No. 4,"Light, 10 days",12.5
same,X-ray powder diffraction peak No. 5,"Light, 10 days",16.7
same,X-ray powder diffraction peak No. 6,"Light, 10 days",17.3
same,X-ray powder diffraction peak No. 7,"Light, 10 days",20.2
same,X-ray powder diffraction peak No. 8,"Light, 10 days",20.5
same,X-ray powder diffraction peak No. 9,"Light, 10 days",21.9
same,X-ray powder diffraction peak No. 10,"Light, 10 days",23.9
same,X-ray powder diffraction peak No. 11,"Light, 10 days",38.3
same,crystal form stability by XRPD (in words),"light, 40° C., 60° C., 25° C./RH75%, 25° C./RH90%, 5, 10 and 30 days",No crystal form conversion had occurred
